The record followed here is patent US9328138B2 (priority 2011, dated 2016).

SMILES strings stand for the structures.

For test [1], the target named is HCV NS3 protease genotype 3a (3A-1) (Hepatitis C virus genotype 3a, UniProt Q81258). The test can be described thus: HCV NS3 protease time-resolved fluorescence (TRF) assay, genotype 3a. The test is classed as biochemical. Particulars: Ki 3a. In a few lines:
(§1)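 Pre-incubation of NS3/NS4A protease with inhibitor for 10 min in pH 7.5 HEPES buffer with 10 mM DTT; 25 nM TRF peptide substrate, hydrolysis 6 h at room temperature. Fluorescence read at ex 340/em 615 nm with 400 μs delay, enzyme level set for S/B 5-20; IC50 by four-parameter fit.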

Test [2] deals with T1, HCV genotype 1b (BK) NS3 modified enzyme with a R155K mutation (Hepatitis C virus genotype 1b, UniProt P26663, R1181K).
T1 construct: HCV genotype 1b (BK) NS3 modified enzyme
The test can be described thus: HCV NS3 protease time-resolved fluorescence (TRF) assay, genotype 1b R155K. The test is classed as biochemical. As to conditions: Ki 1b R155K, genotype 1b (BK) NS3 R155K; single value. In a few lines: as §1

One may read the Ki as a dissociation constant, usually derived from enzyme kinetics or from competition with a known ligand. Regarding `C=C[C@@H]1C[C@]1(NC(=O)[C@@H]1C[C@@H]2CN1C(=O)[C@H](C(C)(C)C)NC(=O)O[C@@H]1C[C@H]1CCCCCc1c(nc3ccccc3c1OCCCN(C)Cc1ncc(C)[nH]1)O2)C(=O)NS(=O)(=O)C1(C)CC1` [Example 201, (1aR,5S,8S,10R,22aR)-5-tert-butyl-N-[(1R,2S)-2-ethenyl-1-{[(1-methylcyclopropyl)sulfonyl]carbamoyl}cyclopropyl]-17-(3-{methyl[(5-methyl1H-imidazol-2-yl)methyl]amino}proopoxy)-3,6-dioxo-1,1a,3,4,5,6,9,10,18,19,20,21,22,22a-tetradecahydro-8H-7,10-methanocyclopropa[18,19][1,10,3,6] dioxadiazacyclononadecino[11,12-b] quinoline-8-carboxamide], the inhibition constant Ki stood at 1300 pM in test [1] and 79 pM in test [2].

As for `C=C[C@@H]1C[C@]1(NC(=O)[C@@H]1C[C@@H]2CN1C(=O)[C@H](C(C)(C)C)NC(=O)O[C@@H]1C[C@H]1CCCCCc1c(nc3ccccc3c1OCCCN(C)Cc1ccn[nH]1)O2)C(=O)NS(=O)(=O)C1(C)CC1` [Example 202, (1aR,5S,8S,10R,22aR)-5-tert-butyl-N-[(1R,2S)-2-ethenyl-1-{[(1-methylcyclopropyl)sulfonyl]carbamoyl}cyclopropyl]-17-{3-[methyl(1H-pyrazol-5-ylmethyl)amino]propoxy}-3,6-dioxo-1,1a,3,4,5,6,9,10,18, 19,20,21,22,22a-tetradecahydro-8H-7,10-methanocyclopropa[18,19][1,10,3,6] dioxadiazacyclononadecino[11,12-b] quinoline-8-carboxamide], the Ki worked out at 950 pM in test [1] and 50 pM in test [2].

In the case of `C=C[C@@H]1C[C@]1(NC(=O)[C@@H]1C[C@@H]2CN1C(=O)[C@H](C(C)(C)C)NC(=O)O[C@@H]1C[C@H]1CCCCCc1c(nc3ccccc3c1OCCCN1CCCCC1c1nc3cc(F)ccc3[nH]1)O2)C(=O)NS(=O)(=O)C1(C)CC1` (stereo partly drawn) [Example 203, (1aR,5S,8S,10R,22aR)-5-tert-butyl-N-[(1R,2S)-2-ethenyl-1-{[(1-methylcyclopropyl)sulfonyl]carbamoyl}cyclopropyl]-17-{3-[2-(5-fluoro-1H-benzimidazol-2-yl)piperidin-1-yl]propoxy}-3,6-dioxo-1,1a,3,4,5,6,9,10,18,19,20, 21,22,22a-tetradecahydro-8H-7,10-methanocyclopropa[18,19][1,10,3,6] dioxadiazacyclononadecino[11,12-b] quinoline-8-carboxamide], the inhibition constant (Ki) in test [1] was found to be 4900 pM; in test [2], 130 pM.

Regarding `C=C[C@@H]1C[C@]1(NC(=O)[C@@H]1C[C@@H]2CN1C(=O)[C@H](C(C)(C)C)NC(=O)O[C@@H]1C[C@H]1CCCCCc1c(nc3ccccc3c1OCCCNC1CCCc3ccccc31)O2)C(=O)NS(=O)(=O)C1(C)CC1` (stereo partly drawn) [Example 204, (1aR,5S,8S,10R,22aR)-5-tert-butyl-N-[(1R,2S)-2-ethenyl-1-{[(1-methylcyclopropyl)sulfonyl]carbamoyl}cyclopropyl]-3,6-dioxo-17-[3-(1,2,3,4-tetrahydronaphthalen-1-ylamino)propoxy]-1,1a,3,4,5,6,9,10,18,19, 20,21,22,22a-tetradecahydro-8H-7,10-methanocyclopropa[18,19][1,10,3,6] dioxadiazacyclononadecino[11,12-b] quinoline-8-carboxamide], the results for the Ki in test [1] and in test [2] were 2400 pM and 150 pM, respectively.

For `C=C[C@@H]1C[C@]1(NC(=O)[C@@H]1C[C@@H]2CN1C(=O)[C@H](C(C)(C)C)NC(=O)O[C@@H]1C[C@H]1CCCCCc1c(nc3ccccc3c1OCCCN1CCNC(C(F)(F)F)C1)O2)C(=O)NS(=O)(=O)C1(C)CC1` (stereo partly drawn) [Example 205, (1aR,5S,8S,10R,22aR)-5-tert-butyl-N-[(1R,2S)-2-ethenyl-1-{[(1-methylcyclopropyl)sulfonyl]carbamoyl}cylcopropyl]-3,6-dioxo-17-{3-[3-(trifluoromethyl)piperazin-1-yl]propoxy}-1,1a,3,4,5,6,9,10,18, 19,20,21,22,22a-tetradecahydro-8H-7,10-methanocyclopropa[18,19][1,10,3,6] dioxadiazacyclononadecino[11,12-b] quinoline-8-carboxamide], the Ki in test [1] is 1900 pM; in test [2], 190 pM.

As for `C=C[C@@H]1C[C@]1(NC(=O)[C@@H]1C[C@@H]2CN1C(=O)[C@H](C(C)(C)C)NC(=O)O[C@@H]1C[C@H]1CCCCCc1c(nc3ccccc3c1OCCCN1CC(F)(F)C1)O2)C(=O)NS(=O)(=O)C1(C)CC1` [Example 206, (1aR,5S,8S,10R,22aR)-5-tert-butyl-17-[3-(3,3-difluoroazetidin-1-yl)propoxy]-N-[(1R,2S)-2-ethenyl-1-{[(1-methylcyclopropyl)sulfonyl]carbamoyl}cyclopropyl]-3,6-dioxo-1,1a,3,4,5,7,9,10,18,19,20,21,22,22a-tetradecahydro-8H-7,10-methanocyclopropa[18,19][1,10,3,6] dioxadiazacyclononadecino[11,12-b] quinoline-8-carboxamide], the Ki in test [1] was found to be 2600 pM; in test [2], 200 pM.

As for `C=C[C@@H]1C[C@]1(NC(=O)[C@@H]1C[C@@H]2CN1C(=O)[C@H](C(C)(C)C)NC(=O)O[C@@H]1C[C@H]1CCCCCc1c(nc3ccccc3c1OCCCN1CCC3(CCCC3)C1)O2)C(=O)NS(=O)(=O)C1(C)CC1` [Example 207, (1aR,5S,8S,10R,22aR)-17-[3-(2-azaspiro[4.4]non-2-yl)propoxy]-5-tert-butyl-N-[(1R,2S)-2-ethenyl-1-{[(1-methylcylcopropyl)sulfonyl]carbamoyl}cyclopropyl]-3,6-dioxo-1,1a,3,4,5,7,9, 10,18,19,20,21,22,22a-tetradecahydro-8H-7,10-methanocyclopropa[18,19][1,10,3,6] dioxadiazacyclononadecino[11,12-b] quinoline-8-carboxamide], the inhibitory constant (Ki) in test [1] was 1300 pM; in test [2] it was 110 pM.

Regarding `C=C[C@@H]1C[C@]1(NC(=O)[C@@H]1C[C@@H]2CN1C(=O)[C@H](C(C)(C)C)NC(=O)O[C@@H]1C[C@H]1CCCCCc1c(nc3ccccc3c1OCCCN1CCC[C@@H]1C(N)=O)O2)C(=O)NS(=O)(=O)C1(C)CC1` [Example 208, (1aR,5S,8S,10R,22aR)-5-tert-butyl-17-{3-[(2R)-2-carbamoylpyrrolidin-1-yl]propoxy}-N-[(1R,2S)-2-ethenyl-1-{[(1-methylcyclopropyl)sulfonyl]carbamoyl}cyclopropyl]-3,6-dioxo-1,1a,3,4,5,6,9,10,18,19,20,21,22,22a-tetradecahydro-8H-7,10-methanocyclopropa[18,19][1,10,3,6] dioxadiazacyclononadecino[11,12-b] quinoline-8-carboxamide], the Ki in test [1] came out at 1000 pM; in test [2] it was 110 pM.

With `C=C[C@@H]1C[C@]1(NC(=O)[C@@H]1C[C@@H]2CN1C(=O)[C@H](C(C)(C)C)NC(=O)O[C@@H]1C[C@H]1CCCCCc1c(nc3ccccc3c1OCCCN1CCC(C)(O)C1)O2)C(=O)NS(=O)(=O)C1(C)CC1` (stereo partly drawn) [Example 209, (1aR,5S,8S,10R,22aR)-5-tert-butyl-N-[(1R,2S)-2-ethenyl-1-{[(1-methylcyclopropyl)sulfonyl]carbamoyl}cyclopropyl]-17-[3-(3-hydroxy-3-methylpyrrolidin-1-yl)propoxy]-3,6-dioxo-1,1a,3,4,5,6,9,10,18,19,20,21,22,22a-tetradeca hydro-8H-7,10-methanocyclopropa[18,19][1,10,3,6] dioxadiazacyclononadecino[11,12-b] quinoline-8-carboxamide], the Ki in test [1] worked out at 550 pM; in test [2] it was 56 pM.

With `C=C[C@@H]1C[C@]1(NC(=O)[C@@H]1C[C@@H]2CN1C(=O)[C@H](C(C)(C)C)NC(=O)O[C@@H]1C[C@H]1CCCCCc1c(nc3ccccc3c1OC1CCN(C)CC1)O2)C(=O)NS(=O)(=O)C1(C)CC1` [Example 210, (1aR,5S,8S,10R,22aR)-5-tert-butyl-N-[(1R,2S)-2-ethenyl-1-{[(1-methylcyclopropyl)sulfonyl]carbamoyl}cyclopropyl]-17-[(1-methylpiperidin-4-yl)oxy]-3,6-dioxo-1,1a,3,4,5,6,9,10,18,19,20,21,22,22a-tetradecahydro-8H-7,10-methanocyclopropa[18,19][1,10,3,6]dioxadiazacyclononadecino[11,12-b]quinoline-8-carboxamide], the inhibition constant (Ki) is 290 pM in test [1] and 46 pM in test [2].

With `C=C[C@@H]1C[C@]1(NC(=O)[C@@H]1C[C@@H]2CN1C(=O)[C@H](C1CCCCC1)NC(=O)O[C@@H]1C[C@H]1CCCCCc1c(nc3ccccc3c1OC1CCN(C)CC1)O2)C(=O)NS(=O)(=O)C1(C)CC1` [Example 211, (1aR,5S,8S,10R,22aR)-5-cyclohexyl-N-[(1R,2S)-2-ethenyl-1-{[(1-methylcyclopropyl)sulfonyl]carbamoyl}cyclopropyl]-17-[(1-methylpiperidin-4-yl)oxy]-3,6-dioxo-1,1a,3,4,5,6,9,10,18,19,20,21,22,22a-tetradecahydro-8H-7,10-methanocyclopropa[18,19][1,10,3,6] dioxadiazacyclononadecino[11,12-b]quinoline-8-carboxamide], the Ki in test [1] was 300 pM; in test [2], 33 pM.

With `C=C[C@@H]1C[C@]1(NC(=O)[C@@H]1C[C@@H]2CN1C(=O)[C@H](C(C)(C)C)NC(=O)O[C@@H]1C[C@H]1CCCCCc1c(nc3c(F)cccc3c1OCCN1CCC1)O2)C(=O)NS(=O)(=O)C1(C)CC1` [Example 212, (1aR,5S,8S,10R,22aR)-17-[2-(azetidin-1-yl)ethoxy]-5-tent-butyl-N-[(1R,2S)-2-ethenyl-1-{[(1-methylcyclopropyl)sulfonyl]carbamoyl}cyclopropyl]-13-fluoro-3,6-dioxo-1,1a,3,4,5,6,9,10,18,19,20,21,22,22a-tetradecahydro-8H-7,10-methanocyclopropa[18,19][1,10,3,6] dioxadiazacyclononadecino[11,12-b]quinoline-8-carboxamide], the inhibition constant Ki in test [1] is 1900 pM; in test [2], 220 pM.
